Tested on: 953936-095-R-J2-PDC spheroids with HUVEC/MSC, viability
Assay: Anticancer human tumor 953936-095-R-J2-PDC patient-derived cervical squamous cell carcinoma cell line growth inhibition [PI3K]
Conditions: for IC50: curve of first compound; for viability, T/C: stronger effect = lower value
How it was run: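 Stroma-containing spheroids: tumor line, pooled-donor HUVEC, hMSC. Treatments: targeted agents with PI3K inhibitors. Dosing: clinically relevant, half-log spacing, 10 microM ceiling without known Cmax. Read-out: cell viability.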

[1] = second compound 0.0316 µM, first compound 0.000316 µM
[2] = second compound 0.0316 µM, first compound 0.001 µM
[3] = second compound 0.0316 µM, first compound 0.00316 µM
[4] = second compound 0.0316 µM, first compound 0.01 µM
[5] = second compound 0.0316 µM, first compound 0.0316 µM
[6] = second compound 0.0316 µM, first compound 0.1 µM
[7] = second compound 0.1 µM, first compound 0.000316 µM
[8] = second compound 0.1 µM, first compound 0.001 µM
[9] = second compound 0.1 µM, first compound 0.00316 µM
[10] = second compound 0.1 µM, first compound 0.01 µM
[11] = second compound 0.1 µM, first compound 0.0316 µM
[12] = second compound 0.1 µM, first compound 0.1 µM
[13] = second compound 0.316 µM, first compound 0.000316 µM
[14] = second compound 0.316 µM, first compound 0.001 µM
[15] = second compound 0.316 µM, first compound 0.00316 µM
[16] = second compound 0.316 µM, first compound 0.01 µM
[17] = second compound 0.316 µM, first compound 0.0316 µM
[18] = second compound 0.316 µM, first compound 0.1 µM
[19] = second compound 1 µM, first compound 0.000316 µM
[20] = second compound 1 µM, first compound 0.001 µM
[21] = second compound 1 µM, first compound 0.00316 µM
[22] = second compound 1 µM, first compound 0.01 µM
[23] = second compound 1 µM, first compound 0.0316 µM
[24] = second compound 1 µM, first compound 0.1 µM
[25] = second compound 3.16 µM, first compound 0.000316 µM
[26] = second compound 3.16 µM, first compound 0.001 µM
[27] = second compound 3.16 µM, first compound 0.00316 µM
[28] = second compound 3.16 µM, first compound 0.01 µM
[29] = second compound 3.16 µM, first compound 0.0316 µM
[30] = second compound 3.16 µM, first compound 0.1 µM
[31] = second compound 10 µM, first compound 0.000316 µM
[32] = second compound 10 µM, first compound 0.001 µM
[33] = second compound 10 µM, first compound 0.00316 µM
[34] = second compound 10 µM, first compound 0.01 µM
[35] = second compound 10 µM, first compound 0.0316 µM
[36] = second compound 10 µM, first compound 0.1 µM
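Further: spheroids exposed to compounds for seven days before read-out.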

In the case of `CC(=O)c1c(C)c2cnc(Nc3ccc(N4CCNCC4)cn3)nc2n(C2CCCC2)c1=O` + Cc1nc(NC(=O)N2CCCC2C(N)=O)sc1-c1ccnc(C(C)(C)C(F)(F)F)c1, the IC50 (second compound 0.0316 µM) is reported as > 100 nM, the IC50 (second compound 0.1 µM) is reported as > 100 nM and the IC50 (second compound 0.316 µM) is reported as > 100 nM. For the same molecule, the IC50 (second compound 1 µM) was < 0.316 nM, the IC50 (second compound 3.16 µM) was < 0.316 nM and the IC50 (second compound 10 µM) was < 0.316 nM. It also gave a viability, T/C [1] of 88.8%, a viability, T/C [2] of 92.6% and a viability, T/C [3] of 88.5%. It also gave a viability, T/C [4] of 91%, a viability, T/C [5] of 103% and a viability, T/C [6] of 89.5%. For the same molecule, the viability, T/C [7] was 75.6%, the viability, T/C [8] was 82.3% and the viability, T/C [9] was 85.6%. The viability, T/C [10] was 74.1%, the viability, T/C [11] was 88% and the viability, T/C [12] was 75.9%. It also gave a viability, T/C [13] of 57.8%, a viability, T/C [14] of 69.5% and a viability, T/C [15] of 61%. For the same molecule, the viability, T/C [16] was 60.7%, the viability, T/C [17] was 70.2% and the viability, T/C [18] was 59.3%. The viability, T/C [19] was 46.1%, the viability, T/C [20] was 46.3% and the viability, T/C [21] was 44.4%. The viability, T/C [22] was 44.1%, the viability, T/C [23] was 45.3% and the viability, T/C [24] was 43.5%. It also gave a viability, T/C [25] of 25.4%, a viability, T/C [26] of 25.3% and a viability, T/C [27] of 27.3%. The viability, T/C [28] was 24.9%, the viability, T/C [29] was 28.3% and the viability, T/C [30] was 24.7%. The viability, T/C [31] was 11.3%, the viability, T/C [32] was 10.9% and the viability, T/C [33] was 10.2%. For the same molecule, the viability, T/C [34] was 10.2%, the viability, T/C [35] was 11.4% and the viability, T/C [36] was 11.7%.
`CC(C)n1nc(-c2ccc3oc(N)nc3c2)c2c(N)ncnc21` + Cc1nc(NC(=O)N2CCCC2C(N)=O)sc1-c1ccnc(C(C)(C)C(F)(F)F)c1 was tested, and the IC50 (second compound 0.0316 µM) was 24.3 nM, the IC50 (second compound 0.1 µM) was 18.7 nM and the IC50 (second compound 0.316 µM) was 7.32 nM. For the same molecule, the IC50 (second compound 1 µM) was < 0.316 nM, the IC50 (second compound 3.16 µM) was < 0.316 nM and the IC50 (second compound 10 µM) was < 0.316 nM. It also gave a viability, T/C [1] of 83%, a viability, T/C [2] of 86.6% and a viability, T/C [3] of 78.5%. For the same molecule, the viability, T/C [4] was 68.2%, the viability, T/C [5] was 44.8% and the viability, T/C [6] was 16.1%. For the same molecule, the viability, T/C [7] was 78.4%, the viability, T/C [8] was 74.6% and the viability, T/C [9] was 69.2%. It also gave a viability, T/C [10] of 64.1%, a viability, T/C [11] of 39.2% and a viability, T/C [12] of 15.2%. For the same molecule, the viability, T/C [13] was 66%, the viability, T/C [14] was 60.7% and the viability, T/C [15] was 56.8%. It also gave a viability, T/C [16] of 48.7%, a viability, T/C [17] of 30.8% and a viability, T/C [18] of 11.8%. It also gave a viability, T/C [19] of 45.9%, a viability, T/C [20] of 42.9% and a viability, T/C [21] of 38.4%. The viability, T/C [22] was 33.9%, the viability, T/C [23] was 19.7% and the viability, T/C [24] was 8.92%. The viability, T/C [25] was 26%, the viability, T/C [26] was 24.1% and the viability, T/C [27] was 21.5%. It also gave a viability, T/C [28] of 18.3%, a viability, T/C [29] of 10.8% and a viability, T/C [30] of 5.88%. The viability, T/C [31] was 11.7%, the viability, T/C [32] was 10.8% and the viability, T/C [33] was 10.2%. The viability, T/C [34] was 9.27%, the viability, T/C [35] was 6.73% and the viability, T/C [36] was 3.32%.
`CCCS(=O)(=O)Nc1ccc(F)c(C(=O)c2c[nH]c3ncc(-c4ccc(Cl)cc4)cc23)c1F` + Cc1nc(NC(=O)N2CCCC2C(N)=O)sc1-c1ccnc(C(C)(C)C(F)(F)F)c1 showed an IC50 (second compound 0.0316 µM) of 5030 nM, an IC50 (second compound 0.1 µM) of 4880 nM and an IC50 (second compound 0.316 µM) of 4280 nM. The IC50 (second compound 1 µM) was < 31.6 nM, the IC50 (second compound 3.16 µM) was < 31.6 nM and the IC50 (second compound 10 µM) was < 31.6 nM. For the same molecule, the viability, T/C [5] was 90.7%, the viability, T/C [6] was 95.1% and the viability, T/C (second compound 0.0316 µM, first compound 0.316 µM) was 95.8%. The viability, T/C (second compound 0.0316 µM, first compound 1 µM) was 99.2%, the viability, T/C (second compound 0.0316 µM, first compound 3.16 µM) was 83.2% and the viability, T/C (second compound 0.0316 µM, first compound 10 µM) was 0.75%. It also gave a viability, T/C [11] of 82.6%, a viability, T/C [12] of 88.3% and a viability, T/C (second compound 0.1 µM, first compound 0.316 µM) of 86.1%. It also gave a viability, T/C (second compound 0.1 µM, first compound 1 µM) of 92.9%, a viability, T/C (second compound 0.1 µM, first compound 3.16 µM) of 80% and a viability, T/C (second compound 0.1 µM, first compound 10 µM) of 0.68%. It also gave a viability, T/C [17] of 64.6%, a viability, T/C [18] of 65.1% and a viability, T/C (second compound 0.316 µM, first compound 0.316 µM) of 66.9%. For the same molecule, the viability, T/C (second compound 0.316 µM, first compound 1 µM) was 73.8%, the viability, T/C (second compound 0.316 µM, first compound 3.16 µM) was 68.2% and the viability, T/C (second compound 0.316 µM, first compound 10 µM) was 0.57%. The viability, T/C [23] was 46.6%, the viability, T/C [24] was 45.9% and the viability, T/C (second compound 1 µM, first compound 0.316 µM) was 47%. The viability, T/C (second compound 1 µM, first compound 1 µM) was 50.2%, the viability, T/C (second compound 1 µM, first compound 3.16 µM) was 37.3% and the viability, T/C (second compound 1 µM, first compound 10 µM) was 0.59%. For the same molecule, the viability, T/C [29] was 26.6%, the viability, T/C [30] was 26.2% and the viability, T/C (second compound 3.16 µM, first compound 0.316 µM) was 27.5%. For the same molecule, the viability, T/C (second compound 3.16 µM, first compound 1 µM) was 25.5%, the viability, T/C (second compound 3.16 µM, first compound 3.16 µM) was 20.2% and the viability, T/C (second compound 3.16 µM, first compound 10 µM) was 1.4%. The viability, T/C [35] was 11.7%, the viability, T/C [36] was 12.8% and the viability, T/C (second compound 10 µM, first compound 0.316 µM) was 13.7%. For the same molecule, the viability, T/C (second compound 10 µM, first compound 1 µM) was 14.2%, the viability, T/C (second compound 10 µM, first compound 3.16 µM) was 9.62% and the viability, T/C (second compound 10 µM, first compound 10 µM) was 0.42%.

From PubChem BioAssay AID1963971 (Molecular Pharmacology Branch, DTP, NCI, 2024)
